In patent US20250041286A1, “CANCER TREATMENT USING KETOTIFEN IN COMBINATION WITH A CHECKPOINT INHIBITOR” (Materia Therapeutics Inc., priority 2021, published 2025):
“Also recorded” adds a separate entry of the source.

Columns and labels:
[1] = system: MCA205 tumors; assay: Vessel normalization, NG2/CD31 pericyte coverage and open lumen fraction; format: in vivo, mouse
Procedure: To assess whether MC inhibition could normalize the structure of tumor blood vessels, which can further improve perfusion, the effect of ketotifen on vascular permeability was assessed. […] Instead, an upregulation of IFN-γ transcription levels in MCA205 tumors following 10 mg/kg ketotifen treatment was observed (FIG. 1D). IFNγ is an angiostatic protein whose concentration in the TME has been related to vessel normalization and reduced vessel leakiness.

[2] = system: K7M2wt tumors; assay: Tumor growth (volume, mass) under daily ketotifen, osteosarcoma model; format: in vivo, mouse; conditions: daily ketotifen i.p. for 8 days
Procedure: Two mouse models of distinct sarcoma subtypes, fibrosarcoma (MCA205 cells) and osteosarcoma (K7M2wt cells), were used in this study.
MCA205, a mouse fibrosarcoma cell line (SCC173, Millipore), was cultured in RPMI-1640 expansion medium containing 2 mM L-glutamine, 1 mM sodium pyruvate, 10% fetal bovine serum, 1× non-essential amino acids (TMS-001-C, Sigma), 1% antibiotics (A5955, Sigma), and 1×β-mercaptoethanol. K7M2wt, a mouse osteosarcoma cell line (CRL2836™, ATCC®), was cultured in DMEM expansion medium supplemented with 10% FBS and 1% antibiotics. All cells were maintained at 37° C./5% CO2.
A fibrosarcoma syngeneic tumor model was generated by subcutaneous implantation of 2.5×10^5 MCA205 cells in 50 μL of serum-free medium into the flank of 6-week old C57BL/6 female mice. A osteosarcoma syngeneic tumor model was generated by implanting K7M2wt tumor chunks into the fat pad of 6-week old BALB/c female mice. […]
Each treatment group of 4-7 mice received subtherapeutic doses of ketotifen (1, 5, 10 and 25 mg/kg) for a period of 8 days. […] Planar dimensions (x, y) of tumor were monitored every 2-3 days using a digital caliper and tumor volume was estimated from the volume of an ellipsoid and assuming that the third dimension, z, is equal to sqrt(x y).

[3] = system: K7M2wt tumors; assay: Collagen staining with Picrosirius red; format: in vivo, mouse; conditions: 10 mg/kg ketotifen
Procedure: (§1) As tissue stiffness is caused in part by the degree of collagen expression by cancer associated fibroblasts (CAFs) and crosslinking, the intratumoral collagen levels were evaluated by histological staining using Picrosirius red.
(§2) Briefly, tumors were removed from four mice, washed twice in 1×PBS for 10 min, and incubated with 4% PFA overnight at 4° C. The fixative was aspirated, and samples were washed twice in 1×PBS for 10 min. Tissue samples were dehydrated in successive ethanol steps and xylene followed by paraffin embedding. Serial sections ([…]) of paraffin-embedded tissues were produced using the microtome (Accu-Cut SRM 200 Rotary Microtome, SAKURA), flattened out into water, and allowed to dry overnight at 37° C. Sections were then deparaffinized and rehydrated as routinely processed for histology. Following deparaffinization and rehydration, tissue sections were submerged in Picrosirius red stain for 1 hour at room temperature. Next, tissue sections were rinsed in two changes of acetic acid, followed by two changes of absolute ethanol and finally, mounted with DPX mountant for histology (Sigma). Collagen fibers were stained in red while the remaining tissue was pale yellow.

[4] = system: MCA205 tumors; assay: Collagen staining with Picrosirius red; format: in vivo, mouse; conditions: 10 mg/kg ketotifen
Procedure: as §1, §2

[5] = system: K7M2wt tumors; assay: Vascular and functional perfusion, contrast-enhanced ultrasound; format: in vivo, mouse; conditions: 10 mg/kg ketotifen, day 3 and day 7
Procedure: (§3) Vascular perfusion and functional perfusion were measured simultaneously during the course of ketotifen treatment, at day 3 and day 7, using contrast-enhanced ultrasound in mice bearing MCA205 and mice bearing K7M2wt tumors. Tumor perfusion was assessed after bolus injection of 8 μl SonoVue/Lumason contrast agent (Bracco Diagnostics, Geneva, Switzerland). SonoVue contains sulphur hexafluoride microbubbles encapsulated with a phosphoilipid shell and having a mean diameter of 2.5 μm. It is delivered as a retro-orbital injection since tail vein microbubble injections tend to have high variability. Prior to each ultrasound application, mice were anesthetized by i.p. injection of Avertin (200 mg/kg).

[6] = system: MCA205 tumors; assay: as above; format: in vivo, mouse; conditions: 10 mg/kg ketotifen, day 3 and day 7
Procedure: as §3

[7] = system: K7M2wt tumors; assay: Atomic force microscopy (AFM) elastic modulus of tumor samples ex vivo; format: in vivo, mouse; conditions: ketotifen-treated K7M2wt tumors, microscopic scale
Procedure: Following the confirmation of the presence of MCs in human sarcoma samples and the in vitro characterization of the MC-fibroblast interaction, it was assessed whether inhibition of MC degranulation would reduce fibrosis in murine sarcoma models. The impact of MC degranulation by treating MCA205 fibrosarcoma and K7M2wt osteosarcoma tumors with ketotifen was assessed. Ketotifen was administered in four different doses (1, 5, 10, and 25 mg/kg), once a day by i.p. injection for a period of 8 days (as shown in FIG. 4A). […] The effect of ketotifen on tumor stiffness in vivo was monitored using shear wave elastography (SWE). SWE measurements were performed before, after 3 days (for MCA205) or 4 days (for K7M2wt) of ketotifen treatment and upon study completion. […] The pertinent reduction in tumor stiffness was further validated ex vivo at the microscopic tissue scale using atomic force microscopy (AFM) of tumor samples. […] In FIG. 19B, the left peak of lower elastic modulus corresponds to compliant cancer cells, while the tail of higher elastic modulus (dashed rectangles) represents the contribution of the stiffer matrix components, mainly collagen. Data are presented as mean±SE. Statistical analyses were performed by comparing means between two independent groups using the ordinary one-way ANOVA test.

[8] = system: NIH3T3 cells; assay: NIH3T3 cell viability assessment; format: cell-based, murine; conditions: ketotifen or control for 2 or 24 hours

`CN1CCC(=C2c3ccccc3CC(=O)c3sccc32)CC1` [ketotifen] was tested, and the “fraction of vessels with open lumen” value ([1]; MCA205 tumors, CD31 image analysis) was “increase the fraction of vessels with open lumen”, the “pericyte coverage of the tumor vasculature (NG2/CD31 colocalization)” value ([1]; ketotifen 5, 10 and 25 mg/kg compared to the lowest dose and untreated control) was “increase” and the “antitumor effect (tumor volume and mass)” value [2] was “No subtherepautic dose of ketotifen exhibited an antitumor effect”. For the same compound, the “collagen deposition (Picrosirius red)” value [3] was “significant reduction”, the “collagen deposition (Picrosirius red)” value [4] was “significant reduction” and the “vascular and functional perfusion” value [5] was “significant increase; also recorded: highly effective at increasing vessel perfusion”. For the same compound, the “vascular and functional perfusion” value [6] was “significant increase; also recorded: highly effective at increasing vessel perfusion”, the “average value of elastic modulus by AFM” value [7] was “reduction” and the NIH3T3 cell viability [8] was “did not significantly reduce”.
